The target of test [1] is CDK2/CyclinE1 (Homo sapiens (Human), UniProt P24941). Put plainly: CDK2/CyclinE1 kinase inhibitory activity (Caliper mobility shift). In kind it is biochemical. The conditions noted are these: read-out: CDK2/Cyclin El IC50.
For test [2], the target named is CDK1/CyclinB (Homo sapiens (Human), UniProt P06493). Put plainly: CDK1/CyclinB kinase inhibitory activity (Caliper mobility shift). In kind it is biochemical. The note with it: read-out: CDK1/Cyclin B1 IC50.
In test [3] the target is CDK4/Cyclin D1 (Homo sapiens (Human), UniProt P11802). Put plainly: CDK4/CyclinD1 kinase inhibitory activity (Caliper mobility shift). In kind it is biochemical.
Sequence of CDK4/Cyclin D1 (P11802 whole entry): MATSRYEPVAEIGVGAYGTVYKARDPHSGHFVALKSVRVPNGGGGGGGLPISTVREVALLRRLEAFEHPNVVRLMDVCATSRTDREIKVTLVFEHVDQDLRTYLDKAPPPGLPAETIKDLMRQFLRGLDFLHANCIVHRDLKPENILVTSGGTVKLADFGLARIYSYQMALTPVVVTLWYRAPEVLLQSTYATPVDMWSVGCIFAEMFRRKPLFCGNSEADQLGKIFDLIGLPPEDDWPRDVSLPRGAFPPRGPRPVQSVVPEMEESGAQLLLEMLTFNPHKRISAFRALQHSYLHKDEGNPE
Sequence of CDK4/Cyclin D1 (P24385 whole entry partner): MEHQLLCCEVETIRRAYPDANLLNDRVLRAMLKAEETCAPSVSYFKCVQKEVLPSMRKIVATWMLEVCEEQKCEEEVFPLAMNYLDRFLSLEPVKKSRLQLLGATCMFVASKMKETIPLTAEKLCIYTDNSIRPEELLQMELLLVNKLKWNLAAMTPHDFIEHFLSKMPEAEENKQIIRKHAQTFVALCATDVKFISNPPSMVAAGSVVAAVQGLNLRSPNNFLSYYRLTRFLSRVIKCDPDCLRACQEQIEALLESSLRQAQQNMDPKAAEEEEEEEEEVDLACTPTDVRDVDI
In test [4] the target is CDK6/CyclinD1 (Homo sapiens (Human), UniProt Q00534). Put plainly: CDK6/CyclinD1 kinase inhibitory activity (Caliper mobility shift). In kind it is biochemical. The conditions noted are these: read-out: CDK6/Cyclin D1 IC50.
Sequence of CDK6/CyclinD1 (Q00534 whole entry): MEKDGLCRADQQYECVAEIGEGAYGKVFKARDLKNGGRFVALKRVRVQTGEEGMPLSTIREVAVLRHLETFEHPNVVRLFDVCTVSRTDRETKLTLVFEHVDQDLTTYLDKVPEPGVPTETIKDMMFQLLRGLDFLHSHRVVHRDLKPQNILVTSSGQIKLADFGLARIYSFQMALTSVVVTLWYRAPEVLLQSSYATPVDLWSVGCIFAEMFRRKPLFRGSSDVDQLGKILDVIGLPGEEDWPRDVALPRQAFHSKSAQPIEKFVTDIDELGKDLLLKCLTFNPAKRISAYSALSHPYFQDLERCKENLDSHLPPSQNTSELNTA
Sequence of CDK6/CyclinD1 (P24385 whole entry partner): as the sequence (P24385 whole entry partner) above
Test [5] addresses CDK7/CyclinH/MAT1 (Homo sapiens (Human), UniProt P50613). The test can be described thus: CDK7/CyclinH/MAT1 kinase inhibitory activity (Caliper mobility shift). In kind it is biochemical.
In test [6] the target is CDK9/CyclinT1 (Homo sapiens (Human), UniProt P50750). The test can be described thus: CDK9/CyclinT1 kinase inhibitory activity (Caliper mobility shift). In kind it is biochemical. The conditions noted are these: read-out: CDK9/Cyclin T1 IC50.
Sequence of CDK9/CyclinT1 (P50750 whole entry): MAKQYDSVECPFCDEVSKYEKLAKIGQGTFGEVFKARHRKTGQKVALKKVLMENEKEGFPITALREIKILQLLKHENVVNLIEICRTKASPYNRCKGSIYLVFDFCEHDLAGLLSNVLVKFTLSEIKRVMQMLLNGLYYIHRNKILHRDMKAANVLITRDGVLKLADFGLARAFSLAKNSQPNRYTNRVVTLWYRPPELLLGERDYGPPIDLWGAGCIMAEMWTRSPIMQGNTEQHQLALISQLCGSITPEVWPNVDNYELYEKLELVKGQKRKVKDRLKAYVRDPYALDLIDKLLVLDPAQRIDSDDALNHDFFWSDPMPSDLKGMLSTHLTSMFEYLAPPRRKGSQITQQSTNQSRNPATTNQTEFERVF
Sequence of CDK9/CyclinT1 (O60563 whole entry partner): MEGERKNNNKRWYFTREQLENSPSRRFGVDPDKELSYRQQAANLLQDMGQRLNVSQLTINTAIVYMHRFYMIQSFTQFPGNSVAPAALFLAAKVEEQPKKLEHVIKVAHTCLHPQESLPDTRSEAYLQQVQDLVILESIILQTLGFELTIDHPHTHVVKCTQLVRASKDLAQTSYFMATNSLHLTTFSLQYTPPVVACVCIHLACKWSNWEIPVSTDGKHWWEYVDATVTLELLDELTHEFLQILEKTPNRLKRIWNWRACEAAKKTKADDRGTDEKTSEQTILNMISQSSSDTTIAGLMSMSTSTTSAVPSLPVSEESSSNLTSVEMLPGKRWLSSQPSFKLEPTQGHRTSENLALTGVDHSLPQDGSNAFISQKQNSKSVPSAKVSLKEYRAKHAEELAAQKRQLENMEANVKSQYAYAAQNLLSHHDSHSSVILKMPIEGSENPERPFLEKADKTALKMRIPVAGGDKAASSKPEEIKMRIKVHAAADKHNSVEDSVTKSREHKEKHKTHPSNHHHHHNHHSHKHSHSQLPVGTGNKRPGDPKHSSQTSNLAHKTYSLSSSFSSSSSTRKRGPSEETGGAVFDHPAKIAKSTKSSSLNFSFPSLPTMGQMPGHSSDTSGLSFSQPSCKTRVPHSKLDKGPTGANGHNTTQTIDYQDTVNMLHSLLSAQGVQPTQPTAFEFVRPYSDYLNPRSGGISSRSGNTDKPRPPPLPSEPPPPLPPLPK
Test [7] has as its system ER+BC. The conditions noted are these: cited from earlier work.

Where two headings read alike, the source gives them in different places.

Sequence of CDK7/CyclinH/MAT1 (P50613 whole entry): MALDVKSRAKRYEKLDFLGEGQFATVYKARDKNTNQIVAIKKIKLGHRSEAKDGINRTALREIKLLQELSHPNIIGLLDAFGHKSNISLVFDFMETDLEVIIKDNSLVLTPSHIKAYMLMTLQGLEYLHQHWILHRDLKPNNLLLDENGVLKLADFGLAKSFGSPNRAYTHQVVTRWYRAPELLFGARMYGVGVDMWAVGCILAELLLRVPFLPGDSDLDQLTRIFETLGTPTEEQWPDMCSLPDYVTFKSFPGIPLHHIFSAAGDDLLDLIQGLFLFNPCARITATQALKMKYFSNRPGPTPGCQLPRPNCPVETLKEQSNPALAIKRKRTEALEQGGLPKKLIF
Sequence of CDK7/CyclinH/MAT1 (P51946 whole entry partner): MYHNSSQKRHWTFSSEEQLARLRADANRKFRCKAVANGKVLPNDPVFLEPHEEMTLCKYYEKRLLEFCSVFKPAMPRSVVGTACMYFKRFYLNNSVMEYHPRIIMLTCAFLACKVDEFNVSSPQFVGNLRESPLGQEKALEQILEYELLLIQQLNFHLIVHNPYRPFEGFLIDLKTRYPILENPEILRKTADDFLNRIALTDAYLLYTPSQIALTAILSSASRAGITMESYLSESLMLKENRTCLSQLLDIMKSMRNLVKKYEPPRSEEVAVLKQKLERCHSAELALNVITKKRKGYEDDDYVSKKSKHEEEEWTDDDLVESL
Sequence of CDK7/CyclinH/MAT1 (P51948 whole entry partner): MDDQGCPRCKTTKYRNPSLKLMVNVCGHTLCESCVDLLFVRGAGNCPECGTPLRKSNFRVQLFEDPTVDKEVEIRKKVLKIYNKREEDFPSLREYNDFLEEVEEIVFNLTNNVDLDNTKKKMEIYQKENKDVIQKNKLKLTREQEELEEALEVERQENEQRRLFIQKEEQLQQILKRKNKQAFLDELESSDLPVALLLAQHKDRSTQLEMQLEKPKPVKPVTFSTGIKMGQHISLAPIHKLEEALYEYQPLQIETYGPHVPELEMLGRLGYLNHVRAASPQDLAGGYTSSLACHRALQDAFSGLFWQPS
Sequence of CDK1/CyclinB (P06493 whole entry): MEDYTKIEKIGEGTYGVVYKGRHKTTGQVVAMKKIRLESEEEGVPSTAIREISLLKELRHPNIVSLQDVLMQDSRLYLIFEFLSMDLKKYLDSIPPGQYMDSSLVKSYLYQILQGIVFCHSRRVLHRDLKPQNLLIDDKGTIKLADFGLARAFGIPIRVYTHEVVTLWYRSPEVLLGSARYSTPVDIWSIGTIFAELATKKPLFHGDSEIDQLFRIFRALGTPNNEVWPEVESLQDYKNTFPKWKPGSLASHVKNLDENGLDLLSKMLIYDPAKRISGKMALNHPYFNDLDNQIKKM
Sequence of CDK1/CyclinB (P14635 whole entry partner): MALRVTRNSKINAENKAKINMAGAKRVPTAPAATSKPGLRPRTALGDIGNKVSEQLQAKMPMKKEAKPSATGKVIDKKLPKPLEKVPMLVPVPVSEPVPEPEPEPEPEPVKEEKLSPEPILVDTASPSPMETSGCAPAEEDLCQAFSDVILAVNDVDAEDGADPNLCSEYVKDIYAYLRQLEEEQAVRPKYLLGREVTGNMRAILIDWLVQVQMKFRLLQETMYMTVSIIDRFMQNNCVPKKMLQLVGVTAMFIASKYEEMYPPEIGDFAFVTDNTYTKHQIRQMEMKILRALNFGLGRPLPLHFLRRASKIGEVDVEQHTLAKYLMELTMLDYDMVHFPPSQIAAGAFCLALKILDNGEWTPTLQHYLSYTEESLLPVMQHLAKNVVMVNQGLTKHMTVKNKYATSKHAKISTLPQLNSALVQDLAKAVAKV

As for `Cn1cc(S(=O)(=O)N2CCC(Nc3ncc(C#N)c(OCC4(C)CC(F)(F)C4)n3)CC2)cn1` [Example 61], the IC50 in test [1] was less than 10 nM; in test [2], 10 to 100 nM; in test [3] it was less than 10 nM; in test [4], 10 to 100 nM; in test [5] it was 100 to 1000 nM; in test [6], 100 to 1000 nM.
In the case of `Cn1cc(S(=O)(=O)N2CCC(Nc3ncc(C#N)c(OCC4(C)CCCC4)n3)CC2)cn1` [Example 62], the IC50 in test [1] is less than 10 nM; in test [2] it was less than 10 nM; in test [3], less than 10 nM; in test [4], 10 to 100 nM; in test [5] it was 100 to 1000 nM; in test [6] it was 100 to 1000 nM.
As for `Cn1ccc(S(=O)(=O)N2CCC(Nc3ncc(C#N)c(OCC4(C)CCCC4)n3)CC2)n1` [Example 63], the IC50 is less than 10 nM in test [1]; less than 10 nM in test [2]; less than 10 nM in test [3]; less than 10 nM in test [4]; 100 to 1000 nM in test [5]; 100 to 1000 nM in test [6].
As for `N#Cc1cnc(Nc2ccc(S(N)(=O)=O)cc2)nc1N1CCCCC1` [Example 65, 4-((5-cyano-4-(piperidin-1-yl)pyrimidin-2-yl)amino) benzenesulfonamide], the IC50 is less than 10 nM in test [1]; 10 to 100 nM in test [2]; 10 to 100 nM in test [3]; 100 to 1000 nM in test [4]; not below 1000 nM in test [5]; 100 to 1000 nM in test [6].
In the case of `N#Cc1cnc(Nc2ccc(S(N)(=O)=O)cc2)nc1N1CCCCCC1` [Example 68], the IC50 in test [1] was less than 10 nM; in test [2] it was 10 to 100 nM; in test [3], 10 to 100 nM; in test [4] it was 10 to 100 nM; in test [5] it was not below 1000 nM; in test [6], 10 to 100 nM.
With `N#Cc1cnc(Nc2ccc(S(N)(=O)=O)cc2)nc1N1CCC[C@H](F)C1` [Example 81], the IC50 was 10 to 100 nM in test [1]; 100 to 1000 nM in test [2]; 10 to 100 nM in test [3]; 100 to 1000 nM in test [4]; not below 1000 nM in test [5]; 100 to 1000 nM in test [6].
With `N#Cc1cnc(Nc2ccc(S(N)(=O)=O)cc2)nc1N1CCC(O)CC1` [Example 82], the IC50 in test [1] is 10 to 100 nM; in test [2], 100 to 1000 nM; in test [3] it was 100 to 1000 nM; in test [4], 100 to 1000 nM; in test [5], not below 1000 nM; in test [6], 100 to 1000 nM.
In the case of `CNS(=O)(=O)c1ccc(Nc2ncc(C#N)c(N3CCCCC3)n2)cc1` [Example 91], the IC50 in test [1] is less than 10 nM; in test [2], 10 to 100 nM; in test [3], 10 to 100 nM; in test [4], 100 to 1000 nM; in test [5], not below 1000 nM; in test [6], 100 to 1000 nM.
Turning to `Cc1cccc(-c2nc(Nc3ccc(S(N)(=O)=O)cc3)ncc2C#N)c1` [Example 94], the IC50 is less than 10 nM in test [1]; 10 to 100 nM in test [2]; 10 to 100 nM in test [3]; 100 to 1000 nM in test [4]; not below 1000 nM in test [5]; 10 to 100 nM in test [6].
Turning to `N#Cc1cnc(Nc2ccc(S(N)(=O)=O)cc2)nc1-c1cccc(C2CC2)c1` [Example 96], the IC50 in test [1] is 10 to 100 nM; in test [2], 100 to 1000 nM; in test [3], 10 to 100 nM; in test [4] it was not below 1000 nM; in test [5] it was not below 1000 nM; in test [6], 100 to 1000 nM.
Consider `N#Cc1cnc(Nc2ccc(S(N)(=O)=O)cc2)nc1-c1cccc(O)c1` [Example 98], for which the IC50 is less than 10 nM in test [1]; 10 to 100 nM in test [2]; 10 to 100 nM in test [3]; 10 to 100 nM in test [4]; not below 1000 nM in test [5]; 10 to 100 nM in test [6].
Regarding `[2H]C([2H])([2H])NS(=O)(=O)c1ccc(Nc2ncc(C(F)(F)F)c(OC3CCCC3)n2)cc1` [Example 108], the IC50 was less than 10 nM in test [1]; 10 to 100 nM in test [2]; 10 to 100 nM in test [3]; 100 to 1000 nM in test [4]; not below 1000 nM in test [5]; not below 1000 nM in test [6].
Consider `CS(=O)(=O)N1CCC(Nc2ncc(C(F)(F)F)c(OC3CCC3)n2)CC1` [Example 126], for which the IC50 in test [1] was less than 10 nM; in test [2], 10 to 100 nM; in test [3] it was 10 to 100 nM; in test [4], 10 to 100 nM; in test [5] it was 100 to 1000 nM; in test [6], 100 to 1000 nM.
With `CS(=O)(=O)N1CCC(Nc2ncc(C(F)(F)F)c(OC3CCCCC3)n2)CC1` [Example 127], the IC50 is less than 10 nM in test [1]; 10 to 100 nM in test [2]; less than 10 nM in test [3]; 100 to 1000 nM in test [4]; 100 to 1000 nM in test [5]; 10 to 100 nM in test [6].
As to `CC1(COc2nc(NC3CCN(S(C)(=O)=O)CC3)ncc2C(F)(F)F)CCCC1` [Example 128], the IC50 was less than 10 nM in test [1]; 10 to 100 nM in test [2]; less than 10 nM in test [3]; 10 to 100 nM in test [4]; not below 1000 nM in test [5]; 10 to 100 nM in test [6].
Consider `CNS(=O)(=O)N1CCC(Nc2ncc(C(F)(F)F)c(OC3CCCCCC3)n2)CC1` [Example 129], for which the IC50 in test [1] is less than 10 nM; in test [2], 10 to 100 nM; in test [3] it was less than 10 nM; in test [4] it was 100 to 1000 nM; in test [5] it was not below 1000 nM; in test [6], 10 to 100 nM.
On to “Palbociclib plus fulvestrant [Palbociclib+fulvestrant]”, for which the “median PFS” value is reported as 7.6 month in test [7] (CCNE1 high) and 14.1 month in test [7] (CCNE1 low).

Values taken from patent publication US20240166635A1, “AMINOHETEROARYL KINASE INHIBITORS” (Anrui Biomedical Technology (Guangzhou) Co.,Ltd., priority 2020, published 2024).
